Legend:
[1] = target: T1, catalytic domain (JH1, amino acids 826-1132) of human JAK2 (Homo sapiens, UniProt O60674); assay: JAK2 LanthaScreen JH1 Binding Assay; settings: JAK2 JH1 1.5 nM, 50 nM tracer, 2 hours at 25° C.; read-out: JH1 BIND
T1 construct: catalytic domain (JH1, amino acids 826-1132) of human JAK2; FLAG (N); biotin (biotinylated); purchased Carna Biosciences 08-445-20N; host or cells: baculovirus expression system
Method in brief: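 TR-FRET tracer-displacement format: compound IC50 from four-parameter curves after 2 h at 25° C. Reaction held 1.5 nM biotinylated, FLAG-tagged JH1 (aa 826-1132), 50 nM tracer, 0.5 nM Streptavidin-Tb, pH 7.5 Tris buffer; 2 mM ATP set nonspecific background.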

[2] = target: T2, pseudo-kinase domain (JH2, amino-acids 536-812) of human Wild Type JAK2 (Homo sapiens, UniProt O60674, F794H/W659A/W777A); assay: JAK2 LanthaScreen JH2-WT Binding Assay; settings: JAK2 JH2-WT 0.145 nM, 50 nM tracer, 1 hour at 25° C.; read-out: JH2 BIND WT
T2 construct: pseudo-kinase domain (JH2, amino-acids 536-812 with 3 surface mutations W659A, W777A, F794H); His (C); purchased BPS Bioscience 79463; host or cells: baculovirus expression system
T2 sequence (O60674 536-812 W659A/W777A/F794H): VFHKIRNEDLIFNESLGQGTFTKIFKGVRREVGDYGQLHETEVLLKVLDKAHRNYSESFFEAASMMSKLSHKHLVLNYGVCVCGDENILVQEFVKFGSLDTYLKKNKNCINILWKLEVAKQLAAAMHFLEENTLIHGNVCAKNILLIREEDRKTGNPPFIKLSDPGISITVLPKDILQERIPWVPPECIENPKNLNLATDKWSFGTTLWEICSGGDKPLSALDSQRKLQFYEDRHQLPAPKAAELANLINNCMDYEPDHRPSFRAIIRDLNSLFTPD
Method in brief: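 IC50 values derive from four-parameter fits of LanthaScreen signal, measuring displacement of 50 nM fluorescent tracer from 0.145 nM biotinylated, baculovirus-expressed JH2 (536-812) detected by 0.25 nM streptavidin-Tb. Incubation lasts 1 hour at 25° C, pH 7.5.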

[3] = target: T3, pseudo-kinase domain (JH2, amino-acids 536-812) of human V617F mutant JAK2 (Homo sapiens, UniProt O60674, F794H/V617F/W659A/W777A); assay: JAK2 LanthaScreen JH2-V617F Binding Assay; settings: JAK2 JH2-V617F 0.26 nM, 50 nM tracer, 1 hour at 25° C.; read-out: JH2 BIND V617F
T3 construct: pseudo-kinase domain (JH2, amino-acids 536-812 with 3 surface mutations W659A, W777A, F794H); His (C); purchased BPS Bioscience 79498; host or cells: baculovirus expression system
T3 sequence (O60674 536-812 V617F/W659A/W777A/F794H): as the sequence (O60674 536-812 W659A/W777A/F794H) above, with V82F counted along it
Method in brief: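 TR-FRET tracer displacement: 0.26 nM protein, 50 nM tracer, 0.25 nM SA-Tb, 50 mM Tris pH 7.5, 10 mM MgCl2, 5 mM DTT; 1 h, 25° C. NSB = 2 mM ATP. IC50, 4-parameter curve.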

[4] = target: catalytic domain (JH1, amino acids 808-1132) of human JAK2 (Homo sapiens, UniProt O60674); assay: JAK2 HTRF Enzyme Activity Assay; type: biochemical; settings: ATP 30 µM, 60 minutes at 25° C.; read-out: V617F ENZ 30 UM
Chain of catalytic domain (JH1, amino acids 808-1132) of human JAK2 (O60674 808-1132 limits assumed): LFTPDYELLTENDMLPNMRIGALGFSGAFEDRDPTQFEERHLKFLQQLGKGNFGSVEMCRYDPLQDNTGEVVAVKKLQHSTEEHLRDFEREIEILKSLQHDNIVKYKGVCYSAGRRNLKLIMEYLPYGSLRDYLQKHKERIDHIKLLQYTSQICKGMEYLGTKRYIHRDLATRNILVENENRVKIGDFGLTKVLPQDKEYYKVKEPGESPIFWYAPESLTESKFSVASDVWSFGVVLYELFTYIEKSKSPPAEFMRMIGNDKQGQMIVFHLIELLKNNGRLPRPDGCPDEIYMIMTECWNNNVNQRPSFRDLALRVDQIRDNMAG

T1 sequence (O60674 826-1132): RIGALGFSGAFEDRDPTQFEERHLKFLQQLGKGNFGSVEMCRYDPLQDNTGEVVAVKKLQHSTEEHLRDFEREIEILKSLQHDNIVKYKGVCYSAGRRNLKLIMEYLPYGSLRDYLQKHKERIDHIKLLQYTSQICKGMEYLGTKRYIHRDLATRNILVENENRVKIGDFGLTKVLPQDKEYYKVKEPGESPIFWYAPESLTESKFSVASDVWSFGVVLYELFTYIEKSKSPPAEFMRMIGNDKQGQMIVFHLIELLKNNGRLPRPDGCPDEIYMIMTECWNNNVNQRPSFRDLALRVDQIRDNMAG

For `COC(=O)Nc1cc(Nc2cc3c(cn2)n(C)c(=O)n3C2[C@H]3CN(C(=O)OC)C[C@@H]23)cc(-c2cnn(C)c2)c1` (stereo partly drawn) [Example 39, Methyl (1R,5S)-6-(6-((3-((methoxycarbonyl)amino)-5-(1-methyl-1H-pyrazol-4-yl)phenyl)amino)-3-methyl-2-oxo-2,3-dihydro-1H-imidazo[4,5-c]pyridin-1-yl)-3-azabicyclo[3.1.0]hexane-3-carboxylate], the IC50 [1] was over 1000 nM, the IC50 [2] was 100 to 500 nM and the IC50 [3] was 100 to 500 nM. It also gave an IC50 [4] of over 1000 nM.

For `COC(=O)Nc1cc(Nc2cc3c(cn2)n(C)c(=O)n3C2CC3CC2CN3C(C)=O)cc(-c2cnn(C)c2)c1` (stereo not shown) [Example 40, Methyl (3-((1-(2-acetyl-2-azabicyclo[2.2.1]heptan-5-yl)-3-methyl-2-oxo-2,3-dihydro-1H-imidazo[4,5-c]pyridin-6-yl)amino)-5-(1-methyl-1H-pyrazol-4-yl)phenyl)carbamate], the IC50 [1] was over 1000 nM, the IC50 [2] was 10 to 100 nM and the IC50 [3] was 10 to 100 nM. The IC50 [4] was over 1000 nM.

In the case of `COC(=O)N[C@@H]1CC[C@@H](n2c(=O)n(C)c3cnc(Nc4cc(NS(=O)(=O)C5CC(F)(F)C5)cc(C5CCOCC5)c4)cc32)C1` [Example 41, Methyl ((1R,3R)-3-(6-((3-((3,3-difluorocyclobutane)-1-sulfonamido)-5-(tetrahydro-2H-pyran-4-yl)phenyl)amino)-3-methyl-2-oxo-2,3-dihydro-1H-imidazo[4,5-c]pyridin-1-yl)cyclopentyl)carbamate], the IC50 [1] is reported as over 1000 nM, the IC50 [2] is reported as 10 to 100 nM and the IC50 [3] is reported as 10 to 100 nM. The IC50 [4] was over 1000 nM.

For `COC(=O)Nc1cc(Nc2cc3c(cn2)n(C)c(=O)n3C2CCC(C)(NC(=O)OC)CC2)cc(-c2cnn(C)c2)c1` (stereo not shown) [Example 42, Methyl (3-((1-(4-((methoxycarbonyl)amino)-4-methylcyclohexyl)-3-methyl-2-oxo-2,3-dihydro-1H-imidazo[4,5-c]pyridin-6-yl)amino)-5-(1-methyl-1H-pyrazol-4-yl)phenyl)carbamate], the IC50 [1] was over 1000 nM, the IC50 [2] was 10 to 100 nM and the IC50 [3] was 10 to 100 nM. For the same compound, the IC50 [4] was over 1000 nM.

Work on `COCCOC(=O)N[C@@H]1CC[C@@H](n2c(=O)n(C)c3cnc(Nc4cc(NC(=O)OC5CCC5)cc(-c5cnn(C)c5)c4)cc32)C1` [Example 43, 2-Methoxyethyl ((1R,3R)-3-(6-((3-((cyclobutoxycarbonyl)amino)-5-(1-methyl-1H-pyrazol-4-yl)phenyl)amino)-3-methyl-2-oxo-2,3-dihydro-1H-imidazo[4,5-c]pyridin-1-yl)cyclopentyl)carbamate] yielded an IC50 [1] of over 1000 nM, an IC50 [2] of 10 to 100 nM and an IC50 [3] of 10 to 100 nM. The IC50 [4] was over 1000 nM.

Work on `COC(=O)N[C@@H]1CC[C@@H](n2c(=O)n(C)c3cnc(Nc4cc(NC(=O)OC5CCC5)cc(C5CCOCC5)c4)cc32)C1` [Example 44, Methyl ((1R,3R)-3-(6-((3-((cyclobutoxycarbonyl)amino)-5-(tetrahydro-2H-pyran-4-yl)phenyl)amino)-3-methyl-2-oxo-2,3-dihydro-1H-imidazo[4,5-c]pyridin-1-yl)cyclopentyl)carbamate] yielded an IC50 [1] of over 1000 nM, an IC50 [2] of over 1000 nM and an IC50 [3] of over 1000 nM. It also gave an IC50 [4] of over 1000 nM.

`Cn1cc(-c2cc(NC(=O)OC3CCC3)cc(Nc3cc4c(cn3)n(C)c(=O)n4[C@@H]3CC[C@@H](NC(=O)OC4CCC4)C3)c2)cn1` [Example 45, Cyclobutyl ((1R,3R)-3-(6-((3-((cyclobutoxycarbonyl)amino)-5-(1-methyl-1H-pyrazol-4-yl)phenyl)amino)-3-methyl-2-oxo-2,3-dihydro-1H-imidazo[4,5-c]pyridin-1-yl)cyclopentyl)carbamate] gave an IC50 [1] of over 1000 nM, an IC50 [2] of 10 to 100 nM and an IC50 [3] of 10 to 100 nM. It also gave an IC50 [4] of over 1000 nM.

For `CCOC(=O)N[C@@H]1CC[C@@H](n2c(=O)n(C)c3cnc(Nc4cc(NC(=O)OC5CCC5)cc(-c5cnn(C)c5)c4)cc32)C1` [Example 46, Ethyl ((1R,3R)-3-(6-((3-((cyclobutoxycarbonyl)amino)-5-(1-methyl-1H-pyrazol-4-yl)phenyl)amino)-3-methyl-2-oxo-2,3-dihydro-1H-imidazo[4,5-c]pyridin-1-yl)cyclopentyl)carbamate], the IC50 [1] was over 1000 nM, the IC50 [2] was 10 to 100 nM and the IC50 [3] was 10 to 100 nM. The IC50 [4] was over 1000 nM.

In the case of `C#CCOC(=O)N[C@@H]1CC[C@@H](n2c(=O)n(C)c3cnc(Nc4cc(NC(=O)OC5CCC5)cc(-c5cnn(C)c5)c4)cc32)C1` [Example 47, Prop-2-yn-1-yl ((1R,3R)-3-(6-((3-((cyclobutoxycarbonyl)amino)-5-(1-methyl-1H-pyrazol-4-yl)phenyl)amino)-3-methyl-2-oxo-2,3-dihydro-1H-imidazo[4,5-c)pyridin-1-yl)cyclopentyl)carbamate], the IC50 [1] is reported as over 1000 nM, the IC50 [2] is reported as at most 10 nM and the IC50 [3] is reported as at most 10 nM. It also gave an IC50 [4] of over 1000 nM.

With `Cn1cc(-c2cc(NC(=O)OC3CCC3)cc(Nc3cc4c(cn3)n(C)c(=O)n4[C@@H]3CC[C@@H](NC(=O)OC4CCOCC4)C3)c2)cn1` [Example 48, Tetrahydro-2H-pyran-4-yl ((1R,3R)-3-(6-((3-((cyclobutoxycarbonyl)amino)-5-(1-methyl-1H-pyrazol-4-yl)phenyl)amino)-3-methyl-2-oxo-2,3-dihydro-1H-imidazo[4,5-c]pyridin-1-yl)cyclopentyl)carbamate] the IC50 [1] was over 1000 nM, the IC50 [2] was 10 to 100 nM and the IC50 [3] was 10 to 100 nM. For the same compound, the IC50 [4] was over 1000 nM.

`Cn1cc(-c2cc(NC(=O)OC3CCC3)cc(Nc3cc4c(cn3)n(C)c(=O)n4[C@@H]3CC[C@@H](NC(=O)Oc4ccc(F)cc4)C3)c2)cn1` [Example 49, 4-Fluorophenyl ((1R,3R)-3-(6-((3-((cyclobutoxycarbonyl)amino)-5-(1-methyl-1H-pyrazol-4-yl)phenyl)amino)-3-methyl-2-oxo-2,3-dihydro-1H-imidazo[4,5-c]pyridin-1-yl)cyclopentyl)carbamate] was tested, and the IC50 [1] was over 1000 nM, the IC50 [2] was at most 10 nM and the IC50 [3] was at most 10 nM. It also gave an IC50 [4] of over 1000 nM.

Work on `[2H]C([2H])([2H])n1c(=O)n([C@@H]2CC[C@@H](NC(=O)OC)C2)c2cc(Nc3cccc(C4CC4)n3)ncc21` [Example 50, Methyl ((1R,3R)-3-(6-((6-cyclopropylpyridin-2-yl)amino)-3-(methyl-d3)-2-oxo-2,3-dihydro-1H-imidazo[4,5-c]pyridin-1-yl)cyclopentyl)carbamate] yielded an IC50 [1] of over 1000 nM, an IC50 [2] of at most 10 nM and an IC50 [3] of 10 to 100 nM. The IC50 [4] was over 1000 nM.

In the case of `COC(=O)N[C@@H]1CC[C@@H](n2c(=O)n(C)c3cnc(Nc4cc(-c5cnn(C)c5)cc(-c5cccc(C#N)c5)n4)cc32)C1` [Example 51, Methyl ((1R,3R)-3-(6-((6-(3-cyanophenyl)-4-(1-methyl-1H-pyrazol-4-yl)pyridin-2-yl)amino)-3-methyl-2-oxo-2,3-dihydro-1H-imidazo[4,5-c]pyridin-1-yl)cyclopentyl)carbamate], the IC50 [1] is reported as over 1000 nM, the IC50 [2] is reported as at most 10 nM and the IC50 [3] is reported as 10 to 100 nM. It also gave an IC50 [4] of over 1000 nM.

Compound `[2H]C([2H])([2H])n1c(=O)n([C@@H]2CC[C@@H](NC(=O)OC)C2)c2cc(Nc3cc(C(=O)N4CCOCC4)c4cccc(C(F)(F)F)c4n3)ncc21` [Example 52, Methyl ((1R,3R)-3-(3-(methyl-d3)-6-((4-(morpholine-4-carbonyl)-8-(trifluoromethyl)quinolin-2-yl)amino)-2-oxo-2,3-dihydro-1H-imidazo[4,5-c]pyridin-1-yl)cyclopentyl)carbamate] has an IC50 [1] of 500 to 1000 nM, an IC50 [2] of at most 10 nM and an IC50 [3] of at most 10 nM. For the same compound, the IC50 [4] was 500 to 1000 nM.

`COC(=O)Nc1cc(Nc2cc3c(cn2)n(C)c(=O)n3[C@@H]2CC[C@@H](NC(=O)OC)C2)cc(-c2cnn(C)c2)c1` [Example 53, Methyl ((1R,3R)-3-(6-((3-((methoxycarbonyl)amino)-5-(1-methyl-1H-pyrazol-4-yl)phenyl)amino)-3-methyl-2-oxo-2,3-dihydro-1H-imidazo[4,5-c]pyridin-1-yl)cyclopentyl)carbamate] showed an IC50 [1] of over 1000 nM, an IC50 [2] of at most 10 nM and an IC50 [3] of 10 to 100 nM. For the same compound, the IC50 [4] was over 1000 nM.

For `[2H]C([2H])([2H])n1c(=O)n([C@@H]2CC[C@@H](NC(=O)OC)C2)c2cc(Nc3ccc4ncc(C5CC5)n4n3)ncc21` [Example 54, Methyl ((1R,3R)-3-(6-((3-cyclopropylimidazo[1,2-b]pyridazin-6-yl)amino)-3-(methyl-d3)-2-oxo-2,3-dihydro-1H-imidazo[4,5-c]pyridin-1-yl)cyclopentyl)carbamate], the IC50 [1] was over 1000 nM, the IC50 [2] was at most 10 nM and the IC50 [3] was at most 10 nM. The IC50 [4] was over 1000 nM.
